Data: patent US11739098B2 (BRISTOL-MYERS SQUIBB COMPANY, priority 2017, dated 2023)
pIC50: −log10 of the molar value.

What was measured:
Assay type in all cases: cell-based
human TLR9 = molecular target: T1, human TLR9 (Homo sapiens, UniProt Q9NR96); test: TLR9 inhibition reporter assay (HEK-Blue cells, SEAP reporter, ODN2006 stimulation); conditions: HEK-Blue cells overexpressing human TLR9, SEAP reporter, ODN2006 5 nM
T1 construct: host or cells: HEK-Blue cells (HEK293-derived reporter line)
T1 sequence (Q9NR96 26-1032): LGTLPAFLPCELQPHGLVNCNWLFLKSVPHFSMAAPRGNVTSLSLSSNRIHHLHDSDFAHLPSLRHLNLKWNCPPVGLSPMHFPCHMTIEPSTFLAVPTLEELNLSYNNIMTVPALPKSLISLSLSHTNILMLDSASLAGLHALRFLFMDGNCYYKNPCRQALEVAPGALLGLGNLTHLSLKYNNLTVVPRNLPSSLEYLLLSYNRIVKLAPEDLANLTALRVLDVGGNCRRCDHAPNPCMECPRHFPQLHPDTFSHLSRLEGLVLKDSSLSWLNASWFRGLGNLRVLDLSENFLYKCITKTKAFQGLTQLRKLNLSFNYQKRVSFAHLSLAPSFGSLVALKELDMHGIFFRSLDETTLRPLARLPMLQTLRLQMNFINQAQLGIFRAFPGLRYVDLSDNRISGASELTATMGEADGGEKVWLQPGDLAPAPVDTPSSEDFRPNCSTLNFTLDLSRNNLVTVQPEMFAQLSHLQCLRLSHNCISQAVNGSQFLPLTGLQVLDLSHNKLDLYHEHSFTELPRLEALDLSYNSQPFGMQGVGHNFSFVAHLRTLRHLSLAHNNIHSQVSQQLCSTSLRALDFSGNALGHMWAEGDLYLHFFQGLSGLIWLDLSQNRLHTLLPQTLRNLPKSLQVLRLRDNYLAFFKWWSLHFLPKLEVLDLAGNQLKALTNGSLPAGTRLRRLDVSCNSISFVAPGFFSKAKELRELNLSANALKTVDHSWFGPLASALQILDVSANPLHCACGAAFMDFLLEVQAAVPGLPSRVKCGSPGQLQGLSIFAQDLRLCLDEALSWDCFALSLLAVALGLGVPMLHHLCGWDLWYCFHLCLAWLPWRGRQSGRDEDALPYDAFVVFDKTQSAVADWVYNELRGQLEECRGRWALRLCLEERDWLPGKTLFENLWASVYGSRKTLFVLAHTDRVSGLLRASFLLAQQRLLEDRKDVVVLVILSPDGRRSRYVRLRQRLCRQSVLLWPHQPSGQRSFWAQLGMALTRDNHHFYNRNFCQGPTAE
Procedure, shortened: (§1)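 Agonists (final): TLR7 gardiquimod 7.5 μM; TLR8 R848 15.9 μM; TLR9 ODN2006 5 nM. HEK-Blue reporter cells, 30 min RT compound pre-incubation, 0.05 nM–50 μM dose range, 22 h at 37 °C, colorimetric SEAP detection medium. % inhibition relative to agonist+DMSO and known-inhibitor wells.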

human TLR8 = molecular target: T2, human TLR8 (Homo sapiens, UniProt Q9NR97); test: TLR8 inhibition reporter assay (HEK-Blue cells, SEAP reporter, R848 stimulation); conditions: HEK-Blue cells overexpressing human TLR8, SEAP reporter, R848 15.9 μM
T2 construct: host or cells: HEK-Blue cells (HEK293-derived reporter line)
T2 sequence (Q9NR97 27-1041): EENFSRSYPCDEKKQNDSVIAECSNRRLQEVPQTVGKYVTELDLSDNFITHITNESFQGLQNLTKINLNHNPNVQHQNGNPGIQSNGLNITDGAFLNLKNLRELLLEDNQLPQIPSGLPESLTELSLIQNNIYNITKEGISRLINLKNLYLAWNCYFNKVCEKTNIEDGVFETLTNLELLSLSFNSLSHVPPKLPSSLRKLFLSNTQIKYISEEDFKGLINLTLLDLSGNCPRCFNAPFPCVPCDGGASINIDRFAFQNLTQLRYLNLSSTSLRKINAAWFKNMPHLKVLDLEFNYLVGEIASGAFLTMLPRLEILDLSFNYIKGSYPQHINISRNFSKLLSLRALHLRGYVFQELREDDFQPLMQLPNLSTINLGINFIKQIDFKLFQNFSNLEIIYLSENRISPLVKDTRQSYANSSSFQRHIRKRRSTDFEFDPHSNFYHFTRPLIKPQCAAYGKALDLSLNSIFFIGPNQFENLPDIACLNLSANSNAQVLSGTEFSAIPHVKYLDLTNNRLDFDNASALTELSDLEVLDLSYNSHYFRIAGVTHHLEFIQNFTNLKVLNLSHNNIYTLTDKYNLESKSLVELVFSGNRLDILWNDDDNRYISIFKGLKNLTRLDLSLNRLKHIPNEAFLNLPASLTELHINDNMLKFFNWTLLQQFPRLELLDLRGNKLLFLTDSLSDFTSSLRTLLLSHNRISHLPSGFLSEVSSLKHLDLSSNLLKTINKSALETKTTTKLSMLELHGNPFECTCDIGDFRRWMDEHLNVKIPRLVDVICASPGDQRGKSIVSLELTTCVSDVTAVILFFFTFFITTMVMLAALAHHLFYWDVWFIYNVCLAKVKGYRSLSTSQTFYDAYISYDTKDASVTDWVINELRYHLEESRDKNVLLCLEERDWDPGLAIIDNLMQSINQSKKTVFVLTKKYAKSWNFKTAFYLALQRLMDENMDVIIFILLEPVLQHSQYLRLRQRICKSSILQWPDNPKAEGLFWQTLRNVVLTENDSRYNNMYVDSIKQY
Procedure, shortened: as §1

human TLR7 = molecular target: T3, human TLR7 (Homo sapiens, UniProt Q9NYK1); test: TLR7 inhibition reporter assay (HEK-Blue cells, SEAP reporter, gardiquimod stimulation); conditions: HEK-Blue cells overexpressing human TLR7, SEAP reporter, gardiquimod 7.5 μM
T3 construct: host or cells: HEK-Blue cells (HEK293-derived reporter line)
T3 sequence (Q9NYK1 27-1049): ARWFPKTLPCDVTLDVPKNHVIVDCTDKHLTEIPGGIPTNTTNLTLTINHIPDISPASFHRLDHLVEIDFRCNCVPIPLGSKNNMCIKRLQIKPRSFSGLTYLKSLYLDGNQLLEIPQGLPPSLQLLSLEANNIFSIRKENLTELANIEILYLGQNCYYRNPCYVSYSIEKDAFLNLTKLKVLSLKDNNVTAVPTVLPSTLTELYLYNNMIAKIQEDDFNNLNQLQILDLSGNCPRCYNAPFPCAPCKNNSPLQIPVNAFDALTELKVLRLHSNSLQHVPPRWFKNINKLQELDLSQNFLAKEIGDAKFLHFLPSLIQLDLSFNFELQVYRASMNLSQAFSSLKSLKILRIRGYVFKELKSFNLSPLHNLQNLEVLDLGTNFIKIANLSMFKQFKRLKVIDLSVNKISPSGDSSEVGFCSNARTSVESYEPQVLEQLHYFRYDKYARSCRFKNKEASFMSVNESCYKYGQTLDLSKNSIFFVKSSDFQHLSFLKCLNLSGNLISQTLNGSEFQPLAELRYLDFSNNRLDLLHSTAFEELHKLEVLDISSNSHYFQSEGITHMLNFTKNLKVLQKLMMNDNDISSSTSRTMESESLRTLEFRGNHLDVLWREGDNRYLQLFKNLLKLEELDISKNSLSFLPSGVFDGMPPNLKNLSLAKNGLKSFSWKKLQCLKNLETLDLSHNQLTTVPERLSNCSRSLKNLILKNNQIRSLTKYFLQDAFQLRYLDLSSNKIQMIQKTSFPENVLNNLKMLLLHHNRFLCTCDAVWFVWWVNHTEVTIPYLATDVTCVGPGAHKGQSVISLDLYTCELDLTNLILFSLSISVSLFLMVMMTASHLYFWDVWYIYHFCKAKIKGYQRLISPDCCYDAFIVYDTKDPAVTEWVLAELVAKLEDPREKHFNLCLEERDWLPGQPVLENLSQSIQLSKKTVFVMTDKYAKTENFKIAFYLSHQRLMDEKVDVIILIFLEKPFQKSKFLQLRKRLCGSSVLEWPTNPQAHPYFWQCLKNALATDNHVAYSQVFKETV
Procedure, shortened: as §1

Row | SMILES | pIC50 (human TLR9) | pIC50 (human TLR8) | pIC50 (human TLR7)
1 | Cc1c(-c2[nH]c3ccc(C4CCNCC4)cc3c2C(C)C)cn2ccnc2c1Cl [Example 133, 8-chloro-6-(3-isopropyl-5-(piperidin-4-yl)-1H-indol-2-yl)-7-methylimidazo[1,2-a]pyridine] | 4.30 to 6.00 | > 7.00 | > 7.00
2 | COc1ncc(CN2CCC(c3ccc4[nH]c(-c5ccnc6[nH]ncc56)c(C(C)C)c4c3)CC2)cn1 [Example 909, 4-(3-isopropyl-5-(1-((2-methoxypyrimidin-5-yl)methyl)piperidin-4-yl)-1H-indol-2-yl)-1H-pyrazolo[3,4-b]pyridine] | 4.30 to 6.00 | > 7.00 | > 7.00
3 | CCc1c(-c2cnnc3[nH]ccc23)[nH]c2ccc(C3CCNCC3)cc12 [Example 245, 4-(3-ethyl-5-(piperidin-4-yl)-1H-indol-2-yl)-7H-pyrrolo[2,3-c]pyridazine] | 4.30 to 6.00 | 6.00 to 7.00 | 6.00 to 7.00
4 | CC(C)c1c(-c2ccc3nccn3c2)[nH]c2ccc(C3CCN(CC(=O)N(C)C)CC3)cc12 [Example 444, 2-(4-(2-(imidazo[1,2-a]pyridin-6-yl)-3-isopropyl-1H-indol-5-yl)piperidin-1-yl)-N,N-dimethylacetamide] | 6.00 to 7.00 | > 7.00 | > 7.00
5 | Cc1cc(-c2[nH]c3ccc(C4CCN(C(=O)CN(C)C)CC4)cc3c2C(C)C)c(C)n2nnnc12 [Example 469, 2-(dimethylamino)-1-(4-(2-(5,8-dimethyltetrazolo[1,5-a]pyridin-6-yl)-3-isopropyl-1H-indol-5-yl)piperidin-1-yl)ethan-1-one] | 4.30 to 6.00 | > 7.00 | > 7.00
6 | CCc1c(-c2ccnc3[nH]ncc23)[nH]c2ccc(C3CCN(Cc4nccs4)CC3)cc12 [Example 929, 2-((4-(3-ethyl-2-(1H-pyrazolo[3,4-b]pyridin-4-yl)-1H-indol-5-yl)piperidin-1-yl)methyl)thiazole] | 4.30 to 6.00 | > 7.00 | 6.00 to 7.00
7 | OCc1c(-c2ccnc3[nH]ncc23)[nH]c2ccc(C3CCNCC3)cc12 [Example 176, (5-(piperidin-4-yl)-2-(1H-pyrazolo[3,4-b]pyridin-4-yl)-1H-indol-3-yl)methanol] | 4.30 to 6.00 | 4.30 to 6.00 | 4.30 to 6.00
8 | Cc1cc(-c2[nH]c3ccc(C4CCN(C5COC5)CC4)cc3c2C(C)C)cc2ncnn12 [Example 727, 7-(3-isopropyl-5-(1-(oxetan-3-yl)piperidin-4-yl)-1H-indol-2-yl)-5-methyl-[1,2,4]triazolo[1,5-a]pyridine] | 4.30 to 6.00 | > 7.00 | > 7.00
9 | CNC(=O)CN1CCC(c2ccc3[nH]c(-c4ccc5cnnn5c4)c(C(C)C)c3c2)CC1 [Example 300, 2-(4-(2-([1,2,3]triazolo[1,5-a]pyridin-6-yl)-3-isopropyl-1H-indol-5-yl)piperidin-1-yl)-N-methylacetamide] | 4.30 to 6.00 | 6.00 to 7.00 | 6.00 to 7.00
10 | Cc1c(-c2[nH]c3ccc(C4CCN(C5COC5)CC4)cc3c2C(C)C)cn2nnnc2c1C [Example 739, 6-(3-isopropyl-5-(1-(oxetan-3-yl)piperidin-4-yl)-1H-indol-2-yl)-7,8-dimethyltetrazolo[1,5-a]pyridine] | 4.30 to 6.00 | > 7.00 | > 7.00
11 | Cc1cc(-c2[nH]c3ccc(C4CCN(CC(N)=O)CC4)cc3c2C(C)C)cc2cccnc12 [Example 436, 2-(4-(3-isopropyl-2-(8-methylquinolin-6-yl)-1H-indol-5-yl)piperidin-1-yl)acetamide] | 4.30 to 6.00 | > 7.00 | > 7.00
12 | CNC(=O)CN1CCC(c2ccc3[nH]c(-c4cc(C)c5ncccc5c4)c(C(C)C)c3c2)CC1 [Example 437, 2-(4-(3-isopropyl-2-(8-methylquinolin-6-yl)-1H-indol-5-yl)piperidin-1-yl)-N-methylacetamide] | 4.30 to 6.00 | > 7.00 | > 7.00
